Reference: patent US7713969B2, “Compositions and methods for treatment of cancer” (ArQule, Inc., priority 2005, dated 2010)

How the values were obtained:
[1] = tested on: MDA-MB-231 human breast cancer xenograft; test: MDA-MB-231 xenograft, intraperitoneal 80 mg/kg (Example 82); format: in vivo, mice; details: 80 mg/kg intraperitoneally, 5 days on/2 off, four cycles, DMA/PEG 400
Protocol: Athymic female nude mice (CRL:NU/NU-nuBR) were injected subcutaneously in the flank with MDA-MB-231 human breast cancer cells (8×10^6 cells/mouse). Prior to injection, MDA-MB-231 cells were cultured in DMEM (Invitrogen #11965-092) supplemented with 10% (v/v) heat inactivated fetal bovine serum (FBS), 1% Hepes buffer solution (Invitrogen #15630-080) and 1% Penicillin/Streptomycin (Invitrogen #15140-122) at 37° C. in 5% CO2. Tumors were allowed to grow to approximately 50 mm^3 in size. Animals were randomized into three groups of eight animals per group. At day four post injection, mice with established tumors were treated intraperitoneally with (±)-Cis-3-(5,6-dihydro-4H-pyrrolo[3,2,1-ij]quinolin-1yl)-4(1H-indol-3-yl)pyrrolidine-2,5-dione (80 mg/kg), (±)-Trans-3-(5,6-dihydro-4H-pyrrolo[3,2,1-ij]quinolin-1-yl)-4(1H-indol-3-yl)pyrrolidine-2,5-dione (80 mg/kg) administered in DMA/PEG 400 (1:4 v/v) as the vehicle at 50 mg/ml, or vehicle control intraperitoneally. […] Tumor size was evaluated periodically during the study. For each subject, tumor volume was calculated using the formula (L×W^2)/2 where L and W were the length and width of the tumor, respectively. The arithmetic mean tumor volume was calculated for each treatment group+/−standard error of the mean (SEM). […]

[2] = tested on: Recombinant Protein Kinase C; test: Protein Kinase C kinase reaction, Histone H1, autoradiography (Example 79); format: biochemical; details: 0.05, 0.5, or 10 μM, 15 minutes at room temperature
Protocol: Recombinant Protein Kinase C (Calbiochem) (100 ng) was incubated with (±)-cis-3-(5,6-dihydro-4H-pyrrolo[3,2,1-ij]quinolin-1yl)-4(1H-indol-3-yl)pyrrolidine-2,5-dione or (±)-trans-3-(5,6-dihydro-4H-pyrrolo[3,2,1-ij]quinolin-1-yl)-4(1H-indol-3-yl)pyrrolidine-2,5-dione at 0.05, 0.5, or 10 μM for 15 minutes at room temperature. Subsequently, a radioactive labeling mix in kinase buffer (20 mM Tris-HCl pH 7.5, 10 mM MgCl2) containing 20 μM ATP, 0.2 μCi/μl γ^32P-ATP, 0.2 μg/μl Histone H1 (Upstate) was added to each sample. The kinase reaction was carried out for 5 minutes at room temperature. Reaction products were analyzed by 12% SDS-PAGE and autoradiography.

[3] = tested on: HT29; test: Cell viability MTS assay; format: cell-based, human; details: Homo sapiens, HT-29, 72 hours with compound
In short: (§1)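 Tetrazolium (MTS) viability read after 72 hours of compound treatment in DMEM with 15% FBS, 10 mM L-glutamine and 10 mM Hepes pH 7.5. IC50 derived by non-linear regression relative to 0.33% DMSO controls.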

[4] = tested on: MDA-MB-231; test: Cell viability MTS assay; format: cell-based, human; details: Homo sapiens, MDA-MB-231, 72 hours with compound
In short: as §1

[5] = tested on: MDA-MB-231 cells or Paca-2 cells; test: Cell survival in six-well plates, Wright-Giemsa stain (Example 77); format: cell-based; details: Homo sapiens; 0.1-2 μM, cultures observed 10-15 days; cell line of the IC50 not stated
Protocol: Exponentially growing MDA-MB-231 cells or Paca-2 cells were seeded at 1,000 cells per well in six-well plates and allowed to attach for 24 hours. MDA-MB-231 and Paca-2 cells were cultured in DMEM supplemented with 10% (v/v) fetal calf serum (FCS) and 5 ml Penicillin/Streptomycin at 37° C. in 5% CO2. MDA-MB-231 and Paca-2 were established estrogen receptor negative human breast cancer and pancreatic carcinoma cell lines, respectively. (±)-cis-3-(5,6-dihydro-4H-pyrrolo[3,2,1-ij]quinolin-1yl)-4(1H-indol-3-yl)pyrrolidine-2,5-dione or (±)-trans-3-(5,6-dihydro-4H-pyrrolo[3,2,1-ij]quinolin-1-yl)-4(1H-indol-3-yl)pyrrolidine-2,5-dione were each dissolved at a concentration of 10 mM in DMSO, and separately added to cells at a concentration of 0.1, 0.25, 0.5, 1 or 2 μM. Control plates received DMSO alone, at the same percentage of total culture volume as that administered in conjunction with the highest concentration of drug. Cell cultures were observed daily for 10-15 days, then fixed and stained with modified Wright-Giemsa stain (Sigma). Treatment with (±)-cis-3-(5,6-dihydro-4H-pyrrolo [3,2,1-ij]quinolin-1yl)-4(1H-indol-3-yl)pyrrolidine-2,5-dione or (±)-trans-3-(5,6-dihydro-4H-pyrrolo[3,2,1-ij]quinolin-1-yl)-4(1H-indol-3-yl)pyrrolidine-2,5-dione results in cell death of MDA-MB-231 cells or Paca-2 cells. See, e.g., FIG. 2.

[6] = tested on: MDA-MB-231 human breast cancer xenograft; test: MDA-MB-231 xenograft, intraperitoneal 160 mg/kg (Example 81); format: in vivo, mice; details: 160 mg/kg intraperitoneally, q3d×10, lipiodol vehicle
Protocol: Athymic female nude mice (CRL:NU/NU-nuBR) were injected subcutaneously in the flank with MDA-MB-231 human breast cancer cells (8×10^6 cells/mouse). Prior to injection, MDA-MB-231 cells were cultured in DMEM (Invitrogen #11965-092) supplemented with 10% (v/v) heat inactivated fetal bovine serum (FBS), 1% Hepes buffer solution (Invitrogen #15630-080) and 1% Penicillin/Streptomycin (Invitrogen #15140-122) at 37° C. in 5% CO2. Tumors were allowed to grow to approximately 50 mm^3 in size. Animals were randomized into three groups of five animals per group. At day ten post injection, mice with established tumors were treated intraperitoneally with (±)-cis-3-(5,6-dihydro-4H-pyrrolo[3,2,1-ij]quinolin-1yl)-4(1H-indol-3-yl) pyrrolidine-2,5-dione (160 mg/kg), (±)-trans-3-(5,6-dihydro-4H-pyrrolo[3,2,1-ij]quinolin-1-yl)-4(1H-indol-3-yl)pyrrolidine-2,5-dione (160 mg/kg) administered in iodinated poppy seed oil (lipiodol) as the vehicle at 10 mg/ml, or vehicle control. Drug or vehicle was administered every three days for a total of ten doses (q3d×10). Tumor size was evaluated periodically during the study. For each subject, tumor volume was calculated using the formula (L×W^2)/2 where L and W were the length and width of the tumor, respectively. The arithmetic mean tumor volume was calculated for each treatment group+/−standard error of the mean (SEM). […]

- Protein Kinase C kinase activity in comparison to carrier alone [2]: did not reduce kinase activity
- IC50 [3]: 2890 nM
- IC50 [4]: 4040 nM
SMILES: O=C1NC(=O)[C@@H](c2cn3c4c(cccc24)CCC3)[C@H]1c1c[nH]c2ccccc12 (racemic) [(±)-Cis-3-(5,6-dihydro-4H-pyrrolo[3,2,1-ij]quinolin-1-yl)-4(1H-indol-3-yl)pyrrolidine-2,5-dione]
- reduction of mean tumor volume compared to vehicle treated control [1]: 73.4%
- IC50 [5]: 500 nM
- reduction of normalized mean tumor volume compared to vehicle treated control [6]: 80.5%
